Patent US20220106289A1, “NLRP3 INHIBITORS” (INFLAZOME LIMITED, priority 2018, published 2022)
Structures can show the parent of a compound that is named as a salt.

How the values were obtained:
NLRP3 [1] = molecular target: T1, NLRP3 (Homo sapiens, UniProt Q96P20); assay: Human whole blood IL-1β release assay (LPS + nigericin, AlphaLisa); format: cell-based; set-up: Human whole blood in Li-heparin tubes was obtained from healthy donors; from tissue; host or cells: human whole blood from healthy donors; conditions: NLRP3 inhibitory activity, 1 μg/ml LPS, 10 μM nigericin, read-out: HWB IC50
Procedure: For systemic delivery, the ability to inhibit NLRP3 when the compounds are present within the bloodstream is of great importance. For this reason, the NLRP3 inhibitory activity of a number of compounds in human whole blood was investigated in accordance with the following protocol. Human whole blood in Li-heparin tubes was obtained from healthy donors from a volunteer donor panel. • 1. […] Incubate for 3 hrs at 37° C., 5% CO2 • 4. Add 10 μl nigericin (Sigma #N7143) (10 μM FAC) to all wells • 5. Incubate for 1 hr at 37° C., 5% CO2 • 6. At the end of the incubation period, spin plates at 300×g for 5 mins to pellet cells and remove 20 μl of supernatant and add to 96-well v-bottom plates for IL-1β analysis (note: these plates containing the supernatants can be stored at -80° C. to be analysed at a later date) • 7. IL-1β was measured according to the manufacturer protocol (Perkin Elmer-AlphaLisa IL-1 Kit A[…]-5000) • 8.

NLRP3 [2] = molecular target: T1, NLRP3; assay: THP-1 cells pyroptosis assay (LPS + nigericin, resazurin read-out); format: cell-based; set-up: Seed THP-1 cells (25,000 cells/well) containing 1.0 μg/ml LPS; host or cells: THP-1 cells; conditions: NLRP3 inhibitory activity, 1 μg/ml LPS, 5 μM nigericin
Procedure: The cells were routinely passaged and grown to confluency (˜10^6 cells/ml). On the day of the experiment, THP-1 cells were harvested and resuspended into RPMI medium (without FBS). The cells were then counted and viability (>90%) checked by Trypan blue (Sigma #T8154). […] To this diluted cell solution was added LPS (Sigma #L4524) to give a 1 μg/ml Final Assay Concentration (FAC). 40 μl of the final preparation was aliquoted into each well of a 96-well plate. The plate thus prepared was used for compound screening. The following method step-by-step assay was followed for compound screening. • 1. […] Incubate for 3 hrs at 37° C., 5% CO2 • 4. Add 5 μl nigericin (Sigma #N7143) (FAC 5 μM) to all wells • 5. Incubate for 1 hr at 37° C., 5% CO2 • 6. At the end of the incubation period, spin plates at 300×g for 3 mins and remove supernatant • 7. Then add 50 μl of resazurin (Sigma #R7017) (FAC 100 μM resazurin in RPMI medium without FBS) and incubate plates for a further 1-2 hrs at 37° C. and 5% CO2 • 8.

T1 sequence (Q96P20 whole entry): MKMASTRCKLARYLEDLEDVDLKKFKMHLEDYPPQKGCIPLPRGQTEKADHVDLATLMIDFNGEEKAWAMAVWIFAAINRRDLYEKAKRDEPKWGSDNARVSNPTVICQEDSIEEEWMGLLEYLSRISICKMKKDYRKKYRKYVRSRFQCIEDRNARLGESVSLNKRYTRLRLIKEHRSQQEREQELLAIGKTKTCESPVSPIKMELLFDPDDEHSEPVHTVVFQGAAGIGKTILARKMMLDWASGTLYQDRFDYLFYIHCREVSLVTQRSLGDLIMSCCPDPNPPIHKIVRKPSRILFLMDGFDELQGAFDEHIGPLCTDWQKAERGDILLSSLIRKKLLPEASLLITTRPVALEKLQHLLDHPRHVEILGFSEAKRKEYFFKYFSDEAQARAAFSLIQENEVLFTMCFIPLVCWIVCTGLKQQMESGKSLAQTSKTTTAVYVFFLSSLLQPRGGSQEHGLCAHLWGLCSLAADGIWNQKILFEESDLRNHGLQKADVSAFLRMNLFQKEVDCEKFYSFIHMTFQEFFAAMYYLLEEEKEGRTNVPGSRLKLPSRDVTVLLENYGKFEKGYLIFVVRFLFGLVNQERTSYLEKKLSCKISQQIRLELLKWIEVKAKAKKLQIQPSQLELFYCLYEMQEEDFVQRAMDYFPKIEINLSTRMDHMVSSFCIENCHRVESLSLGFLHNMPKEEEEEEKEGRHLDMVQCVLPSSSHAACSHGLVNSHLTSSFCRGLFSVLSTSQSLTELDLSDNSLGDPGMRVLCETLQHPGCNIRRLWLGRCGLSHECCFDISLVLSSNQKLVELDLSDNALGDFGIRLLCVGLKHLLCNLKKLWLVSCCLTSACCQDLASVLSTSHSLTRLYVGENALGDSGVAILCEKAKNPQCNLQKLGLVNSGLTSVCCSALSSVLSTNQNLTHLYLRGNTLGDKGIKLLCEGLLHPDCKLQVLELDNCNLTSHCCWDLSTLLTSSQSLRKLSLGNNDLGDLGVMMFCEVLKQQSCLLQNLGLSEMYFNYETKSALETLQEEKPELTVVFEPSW

| SMILES | IC50 (NLRP3 [1]) | IC50 (NLRP3 [2]) |
| --- | --- | --- |
| CC(C)c1cccc(C(C)C)c1NC(=O)NS(=O)(=O)c1cnn(C(C)C)c1 [Example 69, N-((2,6-Diisopropylphenyl)carbamoyl)-1-isopropyl-1H-pyrazole-4-sulfonamide] | 1 to 5 µM | 0.5 to 1 µM |
| CCn1cc(S(=O)(=O)NC(=O)Nc2c3c(cc4c2CCC4)CCC3)nn1 [Example 19, 1-Ethyl-N-((1,2,3,5,6,7-hexahydro-s-indacen-4-yl)carbamoyl)-1H-1,2,3-triazole-4-sulfonamide, potassium salt] | 0.5 to 1 µM | 0.25 to 0.5 µM |
| CC(C)n1ccc(S(=N)(=O)NC(=O)Cc2c3c(cc4c2CCC4)CCC3)n1 (stereo not shown) [Example 24, 2-(1,2,3,5,6,7-Hexahydro-s-indacen-4-yl)-N-(1-isopropyl-1H-pyrazole-3-sulfonimidoyl)acetamide] | > 10 µM | 1 to 5 µM |
| CC(C)c1cc(F)cc(C(C)C)c1NC(=O)NS(=O)(=O)c1ccn(C(C)C)n1 [Example 77, N-((4-Fluoro-2,6-diisopropylphenyl)carbamoyl)-1-isopropyl-1H-pyrazole-3-sulfonamide, sodium salt] | 5 to 10 µM | 1 to 5 µM |
| Cn1nc(S(=O)(=O)NC(=O)Nc2c3c(cc4c2CCC4)CCC3)cc1CO [Example 84, N-((1,2,3,5,6,7-Hexahydro-s-indacen-4-yl)carbamoyl)-5-(hydroxymethyl)-1-methyl-1H-pyrazole-3-sulfonamide] | 0.5 to 1 µM | 0.25 to 0.5 µM |
| CN(C)CC1(n2ccc(S(=O)(=O)NC(=O)Nc3c4c(cc5c3CCC5)CCC4)n2)CCC1 [Example 60, 1-(1-((Dimethylamino)methyl)cyclobutyl)-N-((1,2,3,5,6,7-hexahydro-s-indacen-4-yl)carbamoyl)-1H-pyrazole-3-sulfonamide] | < 0.25 µM | < 0.25 µM |
| COC1(c2cc(S(=O)(=O)NC(=O)Nc3c4c(cc5c3CCC5)CCC4)nn2C)CCCC1 [Example 52, N-((1,2,3,5,6,7-hexahydro-s-indacen-4-yl)carbamoyl)-5-(1-methoxycyclopentyl)-1-methyl-1H-pyrazole-3-sulfonamide] | 0.5 to 1 µM | < 0.25 µM |
| O=C(Nc1c2c(cc3c1CCC3)CCC2)NS(=O)(=O)c1ccn(CC(F)(F)F)n1 [Example 42, N-((1,2,3,5,6,7-Hexahydro-s-indacen-4-yl)carbamoyl)-1-(2,2,2-trifluoroethyl)-1H-pyrazole-3-sulfonamide] | 1 to 5 µM | < 0.25 µM |
| CC(C)n1nncc1S(=O)(=O)NC(=O)Nc1c2c(cc3c1CCC3)CCC2 [Example 47, N-((1,2,3,5,6,7-Hexahydro-s-indacen-4-yl)carbamoyl)-1-isopropyl-1H-1,2,3-triazole-5-sulfonamide] | 1 to 5 µM | < 0.25 µM |
| CC(C)n1ccc(S(=O)(=O)NC(=O)Nc2c3c(cc4c2CCC4O)CCC3)n1 (stereo not shown) [Example 21, N-((1-Hydroxy-1,2,3,5,6,7-hexahydro-s-indacen-4-yl)carbamoyl)-1-isopropyl-1H-pyrazole-3-sulfonamide] | 5 to 10 µM | 5 to 10 µM |
| CC(C)(CN1CCC1)n1ccc(S(=O)(=O)NC(=O)Nc2c3c(cc4c2CCC4)CCC3)n1 [Example 56, 1-(1-(Azetidin-1-yl)-2-methylpropan-2-yl)-N-((1,2,3,5,6,7-hexahydro-s-indacen-4-yl)carbamoyl)-1H-pyrazole-3-sulfonamide] | 0.25 to 0.5 µM | < 0.25 µM |
| O=C(Nc1c2c(cc3c1CCC3)CCC2)NS(=O)(=O)c1ccn(C2CCC2)n1 [Example 59, 1-Cyclobutyl-N-((1,2,3,5,6,7-hexahydro-s-indacen-4-yl)carbamoyl)-1H-pyrazole-3-sulfonamide] | 1 to 5 µM | < 0.25 µM |
| O=C(Nc1c2c(cc3c1CCC3)CCC2)NS(=O)(=O)c1cc[nH]n1 [Example 13, N-((1,2,3,5,6,7-Hexahydro-s-indacen-4-yl)carbamoyl)-1H-pyrazole-3-sulfonamide, potassium salt] | > 10 µM | 1 to 5 µM |
| NC/C(=C\F)COc1ccc(S(=O)(=O)NC(=O)Nc2c3c(cc4c2CCC4)CCC3)cc1 [Example 17, 4-((2-(Aminomethyl)-3-fluoroallyl)oxy)-N-((1,2,3,5,6,7-hexahydro-s-indacen-4-yl)carbamoyl)benzenesulfonamide, 2,2,2-trifluoroacetate salt] | 1 to 5 µM | 0.25 to 0.5 µM |
| CC(C)c1cc(C#N)cc(C(C)C)c1NC(=O)NS(=O)(=O)c1cc(C(C)(C)O)n(C)n1 [Example 71, N-((4-Cyano-2,6-diisopropylphenyl)carbamoyl)-5-(2-hydroxypropan-2-yl)-1-methyl-1H-pyrazole-3-sulfonamide] | 1 to 5 µM | 0.5 to 1 µM |
| C#CCCC1(CCn2ccc(S(=O)(=O)NC(=O)Nc3c4c(cc5c3CCC5)CCC4)n2)N=N1 [Example 16, 1-(2-(3-(But-3-yn-1-yl)-3H-diazirin-3-yl)ethyl)-N-((1,2,3,5,6,7-hexahydro-s-indacen-4-yl)carbamoyl)-1H-pyrazole-3-sulfonamide, potassium salt] | 5 to 10 µM | < 0.25 µM |
| CC(C)n1nc(S(=O)(=O)NC(=O)Nc2c3c(cc4c2CCC4)CCC3)cc1F [Example 62, 5-Fluoro-N-((1,2,3,5,6,7-hexahydro-s-indacen-4-yl)carbamoyl)-1-isopropyl-1H-pyrazole-3-sulfonamide, sodium salt] | > 10 µM | < 0.25 µM |
| CC(C)c1cc(C#N)cc(C(C)C)c1NC(=O)NS(=O)(=O)c1ccn(C(C)C)n1 [Example 72, N-((4-Cyano-2,6-diisopropylphenyl)carbamoyl)-1-isopropyl-1H-pyrazole-3-sulfonamide] | 5 to 10 µM | 1 to 5 µM |
| CC(C)n1ncc(S(=O)(=O)NC(=O)Nc2c3c(cc4c2CCC4)CCC3)n1 [Example 48, N-((1,2,3,5,6,7-Hexahydro-s-indacen-4-yl)carbamoyl)-2-isopropyl-2H-1,2,3-triazole-4-sulfonamide] | 1 to 5 µM | < 0.25 µM |
| CC(C)c1cc(Cl)cc(C(C)C)c1NC(=O)NS(=O)(=O)c1cnn(CC(F)(F)F)c1 [Example 40, N-((4-Chloro-2,6-diisopropylphenyl)carbamoyl)-1-(2,2,2-trifluoroethyl)-1H-pyrazole-4-sulfonamide] | 1 to 5 µM | 0.25 to 0.5 µM |
| CC(C)c1cc(F)cc(C(C)C)c1CC(=O)NS(=O)(=O)c1ccc(CN(C)C)cc1 [Example 33, N-((4-((Dimethylamino)methyl)phenyl)sulfonyl)-2-(4-fluoro-2,6-diisopropylphenyl)acetamide, 2,2,2-trifluoroacetate salt] | 1 to 5 µM | 1 to 5 µM |
| COc1cc(-c2cc(F)cc(C(C)C)c2CCC(=O)NS(=O)(=O)c2ccc(C(C)(C)O)cc2C)ccn1 [Example 3, 3-(4-Fluoro-2-isopropyl-6-(2-methoxypyridin-4-yl)phenyl)-N-((4-(2-hydroxypropan-2-yl)-2-methylphenyl)sulfonyl)propanamide] | > 10 µM | 1 to 5 µM |
| CC(C)(CN1CCCC1)n1ccc(S(=O)(=O)NC(=O)Nc2c3c(cc4c2CCC4)CCC3)n1 [Example 65, N-((1,2,3,5,6,7-Hexahydro-s-indacen-4-yl)carbamoyl)-1-(2-methyl-1-(pyrrolidin-1-yl)propan-2-yl)-1H-pyrazole-3-sulfonamide, sodium salt] | 0.25 to 0.5 µM | < 0.25 µM |
| CC(C)n1cc(S(=O)(=O)NC(=O)Nc2c3c(c(Br)c4c2CCC4)CCC3)cn1 [Example 36, N-((8-Bromo-1,2,3,5,6,7-hexahydro-s-indacen-4-yl)carbamoyl)-1-isopropyl-1H-pyrazole-4-sulfonamide] | 5 to 10 µM | < 0.25 µM |
| CC(C)n1ccc(S(=O)(=O)NC(=O)Nc2c3c(cc4c2CCC4=O)CCC3)n1 [Example 31, 1-isopropyl-N-((1-oxo-1,2,3,5,6,7-hexahydro-s-indacen-4-yl)carbamoyl)-1H-pyrazole-3-sulfonamide, sodium salt] | 5 to 10 µM | 1 to 5 µM |
| Cc1cc(C(C)(C)O)ccc1S(=O)(=O)NC(=O)Cc1c(C(C)C)cc(F)cc1C(C)C [Example 2, 2-(4-Fluoro-2,6-diisopropylphenyl)-N-((4-(2-hydroxypropan-2-yl)-2-methylphenyl)sulfonyl)acetamide, potassium salt] | > 10 µM | 0.25 to 0.5 µM |
